Results as given in US20200069648A1, “HALOALLYLAMINE PYRAZOLE DERIVATIVE INHIBITORS OF LYSYL OXIDASES AND USES THEREOF” (Pharmaxis Ltd., priority 2017, published 2020).
Counter-ions that a name gives are not always drawn.

Experiments:
[1] = target: T1, human recombinant SSAO/VAP-1 (Homo sapiens, UniProt Q16853); experiment: Human recombinant SSAO/VAP-1 amine oxidase inhibition; format: biochemical; settings: 30 min preincubation at 37° C., 600 μM benzylamine
T1 construct: a cloned cDNA template corresponding to residues 34-763 of human SSAO/VAP-1; TEV cleavage site (N); made in house
T1 sequence (Q16853 34-763): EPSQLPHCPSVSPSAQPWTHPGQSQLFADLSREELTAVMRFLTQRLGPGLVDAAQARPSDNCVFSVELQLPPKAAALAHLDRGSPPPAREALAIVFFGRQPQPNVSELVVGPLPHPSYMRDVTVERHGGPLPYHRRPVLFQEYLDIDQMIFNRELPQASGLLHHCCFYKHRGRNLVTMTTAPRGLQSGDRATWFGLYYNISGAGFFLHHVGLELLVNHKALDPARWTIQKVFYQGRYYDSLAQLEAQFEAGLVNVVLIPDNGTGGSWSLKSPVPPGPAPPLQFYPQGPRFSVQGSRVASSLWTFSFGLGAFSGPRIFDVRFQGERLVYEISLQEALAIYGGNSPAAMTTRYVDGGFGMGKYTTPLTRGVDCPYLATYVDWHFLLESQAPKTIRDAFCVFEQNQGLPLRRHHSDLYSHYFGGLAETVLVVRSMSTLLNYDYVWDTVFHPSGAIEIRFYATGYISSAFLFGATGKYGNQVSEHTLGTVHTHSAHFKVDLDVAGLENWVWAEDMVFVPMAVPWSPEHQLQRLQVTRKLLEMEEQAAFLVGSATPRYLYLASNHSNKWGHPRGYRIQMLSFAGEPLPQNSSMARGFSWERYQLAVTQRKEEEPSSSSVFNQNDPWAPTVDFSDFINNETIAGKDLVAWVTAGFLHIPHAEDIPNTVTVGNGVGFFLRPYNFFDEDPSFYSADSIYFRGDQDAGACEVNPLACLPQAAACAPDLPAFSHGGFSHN
Description: Method to Determine the Ability of Compounds of Formula I to Inhibit Human Recombinant SSAO/VAP-1
Human recombinant SSAO/VAP-1 amine oxidase activity was determined using the coupled colorimetric method as described for monoamine oxidase, copper-containing amine oxidases and related enzymes (Holt A. and Palcic M., A peroxidase-coupled continuous absorbance plate-reader assay for flavin monoamine oxidases, copper-containing amine oxidases and related enzymes. Nat Protoc 2006; 1: 2498-2505). Briefly, a cloned cDNA template corresponding to residues 34-763 of human SSAO/VAP-1, and incorporating a mouse Ig kappa (κ) signal sequence, N-terminal flag epitope tag and tobacco etch virus (TEV) cleavage site, was assembled in a mammalian expression vector (pLO-CMV) by Geneart AG. This vector containing human SSAO/VAP-1 residues was transfected into CHO-K1 glycosylation mutant cell line, Lec 8. A clone stably expressing human SSAO/VAP-1 was isolated and cultured in large scale. Active human SSAO/VAP-I was purified and recovered using immunoaffinity chromatography. This was used as the source for SSAO/VAP-1 activity. A high-throughput colorimetric assay was developed using either 96 or 384 well format. Briefly, in a standard 96 well plate assay 50 μL of purified human SSAO/VAP-1 (0.25 μg/mL) in 0.1 M sodium phosphate buffer (pH 7.4) was added into each well. Test compounds were dissolved in DMSO and tested in a Concentration Response Curve (CRC) with 4-11 data points, typically in the micromolar or nanomolar range after incubation with human SSAO/VAP-1 for 30 min at 37° C. After 30 min incubation, 50 μL of the reaction mixture containing 600 μM benzylamine (Sigma Aldrich), 120 μM Amplex Red (Sigma Aldrich) and 1.5 U/mL horseradish peroxidase (Sigma Aldrich) prepared in 0.1 M sodium phosphate buffer (pH 7.4) were added to the corresponding well. The fluorescence unit (RFU) was read every 2.5 min for 30 min at 37° C. excitation 565 nm and emission 590 (Optima; BMG labtech). The slope of the kinetics for each well was calculated using MARS data analysis software (BMG labtech) and this value was used to deduce the IC50 value (Dotmatics).

[2] = test system: metastatic oral cancer cell line expressing DsRed; experiment: Oral metastatic cancer mouse model; format: in vivo; settings: mice, 0.1-100 mg/Kg, up to five weeks; compared with vehicle-treated group
Description: An analysis of the use of LOXL2 inhibitors to treat cancer diseases is performed through the use of an oral metastatic cancer mouse model.
Mice are injected with a metastatic oral cancer cell line expressing DsRed for tracking. Mice are monitored weekly by in vivo imaging (IVIS) based on DsRed expression and by caliper measurements of mouse tongues over a period of up to five weeks. Compound 15 is given 0.1-100 mg/Kg throughout the period of the experimental procedure or only two times a week throughout the entire study.

[3] = target: T2, Recombinant human MAO-B (Homo sapiens, UniProt P27338); experiment: Human recombinant MAO-B inhibition; format: biochemical; settings: benzylamine 100 μM
T2 construct: purchased Sigma Aldrich
T2 sequence (P27338 1-520): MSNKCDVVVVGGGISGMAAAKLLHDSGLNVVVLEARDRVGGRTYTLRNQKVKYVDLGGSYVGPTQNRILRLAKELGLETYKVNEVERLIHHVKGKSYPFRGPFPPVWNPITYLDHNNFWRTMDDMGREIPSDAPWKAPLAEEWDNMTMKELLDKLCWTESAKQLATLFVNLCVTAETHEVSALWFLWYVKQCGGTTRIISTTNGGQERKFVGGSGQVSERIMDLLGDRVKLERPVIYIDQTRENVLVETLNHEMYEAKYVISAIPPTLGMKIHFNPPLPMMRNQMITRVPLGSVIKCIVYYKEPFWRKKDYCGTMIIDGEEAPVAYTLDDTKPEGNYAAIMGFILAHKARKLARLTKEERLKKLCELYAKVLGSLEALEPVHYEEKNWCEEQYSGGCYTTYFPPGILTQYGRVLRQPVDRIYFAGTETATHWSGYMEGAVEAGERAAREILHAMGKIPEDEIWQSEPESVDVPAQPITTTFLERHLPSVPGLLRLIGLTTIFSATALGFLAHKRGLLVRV
Summary of the method: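 Recombinant human MAO-B (0.06 mg/mL) served as enzyme, with 100 μM benzylamine as substrate. Other conditions followed the human SSAO/VAP-1 assay.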

Cc1nn(C/C(F)=C/CN)c(C)c1Cc1ccc(S(=O)(=O)N(C)C)c(Cl)c1 [Compound 15, (Z)-4-((1-(4-amino-2-fluorobut-2-en-1-yl)-3,5-dimethyl-1H-pyrazol-4-yl)methyl)-2-chloro-N,N-dimethylbenzenesulfonamide hydrochloride]
IC50 [1]: < 10 µM | spread of metastasis [2]: significant reduction | tongue cancer volume (tongue volume) [2]: significant reduction | IC50 [3]: > 30 µM

CNS(=O)(=O)c1cc(F)c(Cn2nc(C)c(C/C(F)=C/CN)c2C)cc1F [Compound 26, (Z)-4-((4-(4-amino-2-fluorobut-2-en-1-yl)-3,5-dimethyl-1H-pyrazol-1-yl)methyl)-2,5-difluoro-N-methylbenzenesulfonamide hydrochloride]
IC50 [1]: < 10 µM | IC50 [3]: > 30 µM

CCOC(=O)c1c(Cc2ccc(S(=O)(=O)N(C)C)cc2)c(C)nn1C/C(F)=C/CN [Compound 27, (Z)-ethyl 1-(4-amino-2-fluorobut-2-enyl)-4-(4-(N,N-dimethylsulfamoyl)benzyl)-3-methyl-1H-pyrazole-5-carboxylate hydrochloride]
IC50 [1]: > 30 µM | IC50 [3]: > 30 µM

CCOC(=O)c1nn(C/C(F)=C/CN)c(C)c1Cc1ccc(S(=O)(=O)N(C)C)cc1 [Compound 28, (Z)-ethyl 1-(4-amino-2-fluorobut-2-enyl)-4-(4-(N,N-dimethylsulfamoyl)benzyl)-5-methyl-1H-pyrazole-3-carboxylate hydrochloride]
IC50 [1]: > 30 µM | IC50 [3]: > 30 µM

Cc1nn(C/C(F)=C/CN)c(C(=O)N(C)C)c1Cc1ccc(S(=O)(=O)N(C)C)cc1 [Compound 29, (Z)-1-(4-amino-2-fluorobut-2-enyl)-4-(4-(N,N-dimethylsulfamoyl)benzyl)-N,N,3-trimethyl-1H-pyrazole-5-carboxamide hydrochloride]
IC50 [1]: > 30 µM | IC50 [3]: > 30 µM

Cc1nn(C/C(F)=C/CN)c(C(=O)O)c1Cc1ccc(S(=O)(=O)N(C)C)cc1 [Compound 30, (Z)-1-(4-amino-2-fluorobut-2-enyl)-4-(4-(N,N-dimethylsulfamoyl)benzyl)-3-methyl-1H-pyrazole-5-carboxylic acid hydrochloride]
IC50 [1]: > 30 µM | IC50 [3]: > 30 µM

Cc1c(Cc2ccc(S(=O)(=O)N(C)C)cc2)c(C(=O)O)nn1C/C(F)=C/CN [Compound 31, (Z)-1-(4-amino-2-fluorobut-2-enyl)-4-(4-(N,N-dimethylsulfamoyl)benzyl)-5-methyl-1H-pyrazole-3-carboxylic acid hydrochloride]
IC50 [1]: > 30 µM | IC50 [3]: > 30 µM

Cc1c(Cc2ccc(S(=O)(=O)N(C)C)cc2)c(C(=O)N(C)C)nn1C/C(F)=C/CN [Compound 32, (Z)-1-(4-amino-2-fluorobut-2-enyl)-4-(4-(N,N-dimethylsulfamoyl)benzyl)-N,N,5-trimethyl-1H-pyrazole-3-carboxamide hydrochloride]
IC50 [1]: > 30 µM | IC50 [3]: > 30 µM
